In patent US8153385B2, “Target protein and target gene in drug designing and screening method” (Reverse Proteomics Research Institute Co., Ltd., priority 2004, dated 2012):

Biological target: T1, FLJ13397 clone-derived protein (CARP) (Homo sapiens, UniProt Q9H8M7)
T1 construct: A human full-length cDNA clone was expressed as a protein with an N-terminal His tag; His tag (pDEST17 Gateway vector) (N); made in house; host or cells: Escherichia coli BL21star(DE3)pLysS
T1 sequence (Q9H8M7 1-445): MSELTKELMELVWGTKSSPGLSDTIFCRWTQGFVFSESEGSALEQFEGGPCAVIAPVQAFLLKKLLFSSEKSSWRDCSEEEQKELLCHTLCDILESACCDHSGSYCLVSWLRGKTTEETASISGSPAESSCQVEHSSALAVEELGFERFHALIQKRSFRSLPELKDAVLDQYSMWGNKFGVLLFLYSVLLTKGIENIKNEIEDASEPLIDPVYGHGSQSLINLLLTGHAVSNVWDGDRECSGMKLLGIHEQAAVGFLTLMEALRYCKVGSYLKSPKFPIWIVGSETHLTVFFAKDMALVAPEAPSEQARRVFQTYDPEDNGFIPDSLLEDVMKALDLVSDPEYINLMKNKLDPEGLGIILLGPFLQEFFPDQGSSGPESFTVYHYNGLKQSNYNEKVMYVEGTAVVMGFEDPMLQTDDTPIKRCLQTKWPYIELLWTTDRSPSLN
Test: SEC/MS (size exclusion chromatography / mass analysis) interaction analysis between FLJ13397 clone-derived protein and compounds
Format: binding
Procedure: BP-reaction was performed on human full-length cDNA clone and the cloning vector Gateway pDONR201 by the PCR cloning method using the Invitrogen Gateway system to yield an entry clone. LR-reaction was performed on this entry clone with the destination vector pDEST17 (Gateway System) and LR Clonase at 25° C. for 60 minutes to yield an expression plasmid. Escherichia coli competent cell BL21star(DE3)pLysS were transformed with this expression plasmid, a clone incorporating the expression vector was selected, and a frozen stock was prepared. The transformant was inoculated into LB medium and precultured, after which it was transferred into SB medium and cultured to induce the expression by IPTG, and the cells were stored frozen.
A human full-length cDNA clone was expressed as a protein with an N-terminal His tag. This clone was purified using BioRobot 8000 (Qiagen) or ACTA Crystal (Amersham). […] In the purification with ACTA Crystal, affinity purification using a HisTrap HP column was followed by gel filtration purification using the Gel Filtration Column HiLoad 16/60 or a 10/30 Superdex 75 prep grade column. The purified fraction was used for interaction analysis after being subjected to SDS-PAGE to verify the estimated molecular weight and purity.
To analyze the interactions between commonly used drugs and proteins expressed from human full-length cDNA clones while keeping both the proteins and the compounds in non-modified, non-immobilized state, size exclusion chromatography (SEC) and mass analysis were used in combination (FIGS. 1 and 2). The specific procedures are shown below.
The compound-protein mixture prepared in step 1 was subjected to chromatography using an SEC column, the compound and the protein were separated by SEC, and the bound compound or compound that interacted with the protein in the protein fraction was analyzed using a mass analyzer.
Protein concentrations were measured using BCA Protein Assay (PIERCE), in consideration of the purity calculated by SDS-PAGE.
Mass analysis was performed using LCQ DECA XP (Thermoelectron) or Q-TOFmicro (Micromass), equipped with an ESI probe. The LC pump used was Agilent 1100 (Yokogawa Analytical Systems), and the autosampler used was HTC-PAL (CTC Analytics) equipped with a cooling stacker.
In the SEC method using a 384-well spin column, Unifilter 100 (Whatman), packed with 10 μL (dry volume) of Bio-Gel P6 (BIO-RAD) and swollen with milliQ water, was used as the SEC column. […] The SEC spin column was mounted on an acetonitrile-aliquoted 384-well U-bottom plate and centrifuged; the SEC spin column filtrate, which is a protein fraction, was retrieved in 50% acetonitrile. The protein precipitate produced by the acetonitrile was removed via centrifugation and filtration for protein removal; the resulting filtrate was concentrated by centrifugation and re-dissolved in 10 μL of 50% methanol to obtain a mass analysis sample. The mobile phase supplied to the mass analyzer was 0.1% formic acid/50% methanol solution in the positive ion mode, and 0.1% ammonia/50% methanol solution in the negative ion mode; these mobile phases were used at a flow rate of 40 μL/min. 2-μL of mass analysis samples were injected using an autosampler at 2-Minute intervals; the mass spectral intensity of the compound was measured to obtain the spectral intensity of the pharmaceutical compound contained in the SEC spin column filtrate (protein fraction eluted from SEC).

[1] = compound 1 μM, protein 0 μM (protein-free reference)
[2] = compound 1 μM, protein 23.75 μM
[3] = compound 10 μM, protein 0 μM (protein-free reference)
[4] = compound 10 μM, protein 23.75 μM
[5] = compound 10 μM, protein 47.5 μM
[6] = compound 100 μM, protein 0 μM (protein-free reference)
[7] = compound 100 μM, protein 23.75 μM
[8] = compound 100 μM, protein 47.5 μM
[9] = compound 250 μM, protein 0 μM (protein-free reference)
[10] = compound 250 μM, protein 23.75 μM
[11] = compound 250 μM, protein 47.5 μM

SMILES: COc1ccc(CCN2CCC(Nc3nc4ccccc4n3Cc3ccc(F)cc3)CC2)cc1 [Astemizole]
- spectrum intensity of the extracted mass range (compound in SEC spin column filtrate) [1]: 12239048
- spectrum intensity of the extracted mass range (compound in SEC spin column filtrate) [2]: 16006165
- spectrum intensity of the extracted mass range (compound in SEC spin column filtrate) (compound 1 μM, protein 47.5 μM): 18099237
- spectrum intensity of the extracted mass range (compound in SEC spin column filtrate) [3]: 13557249
- spectrum intensity of the extracted mass range (compound in SEC spin column filtrate) [4]: 118520633
- spectrum intensity of the extracted mass range (compound in SEC spin column filtrate) [5]: 36678174
- spectrum intensity of the extracted mass range (compound in SEC spin column filtrate) [6]: 210085727
- spectrum intensity of the extracted mass range (compound in SEC spin column filtrate) [7]: 1213216132
- spectrum intensity of the extracted mass range (compound in SEC spin column filtrate) [8]: 2237504347
- spectrum intensity of the extracted mass range (compound in SEC spin column filtrate) [9]: 710392964
- spectrum intensity of the extracted mass range (compound in SEC spin column filtrate) [10]: 1027353172
- spectrum intensity of the extracted mass range (compound in SEC spin column filtrate) [11]: 2019252410
- interaction with the FLJ13397-expressed protein (judgement) (judged from increase of spectrum intensity with doses of compound and protein): concentration-dependent interaction

SMILES: c1ccc2[nH]cnc2c1 [Benzimidazole]
- spectrum intensity of the extracted mass range (compound in SEC spin column filtrate) [1]: 2459590
- spectrum intensity of the extracted mass range (compound in SEC spin column filtrate) [2]: 1627696
- spectrum intensity of the extracted mass range (compound in SEC spin column filtrate) (compound 1 μM, protein 47.5 μM): 1328076
- spectrum intensity of the extracted mass range (compound in SEC spin column filtrate) [3]: 2937731
- spectrum intensity of the extracted mass range (compound in SEC spin column filtrate) [4]: 1321952
- spectrum intensity of the extracted mass range (compound in SEC spin column filtrate) [5]: 2620286
- spectrum intensity of the extracted mass range (compound in SEC spin column filtrate) [6]: 3881633
- spectrum intensity of the extracted mass range (compound in SEC spin column filtrate) [7]: 4636579
- spectrum intensity of the extracted mass range (compound in SEC spin column filtrate) [8]: 4337586
- spectrum intensity of the extracted mass range (compound in SEC spin column filtrate) [9]: 9545633
- spectrum intensity of the extracted mass range (compound in SEC spin column filtrate) [10]: 10439034
- spectrum intensity of the extracted mass range (compound in SEC spin column filtrate) [11]: 13446649

SMILES: COC(=O)Nc1nc2ccccc2[nH]1 [Carbendazim]
- spectrum intensity of the extracted mass range (compound in SEC spin column filtrate) [1]: 20852664
- spectrum intensity of the extracted mass range (compound in SEC spin column filtrate) [2]: 16443963
- spectrum intensity of the extracted mass range (compound in SEC spin column filtrate) (compound 1 μM, protein 47.5 μM): 24660680
- spectrum intensity of the extracted mass range (compound in SEC spin column filtrate) [3]: 22203544
- spectrum intensity of the extracted mass range (compound in SEC spin column filtrate) [4]: 21673683
- spectrum intensity of the extracted mass range (compound in SEC spin column filtrate) [5]: 32996198
- spectrum intensity of the extracted mass range (compound in SEC spin column filtrate) [6]: 20562919
- spectrum intensity of the extracted mass range (compound in SEC spin column filtrate) [7]: 35342827
- spectrum intensity of the extracted mass range (compound in SEC spin column filtrate) [8]: 65044479
- spectrum intensity of the extracted mass range (compound in SEC spin column filtrate) [9]: 34177767
- spectrum intensity of the extracted mass range (compound in SEC spin column filtrate) [10]: 129995989
- spectrum intensity of the extracted mass range (compound in SEC spin column filtrate) [11]: 148437211

SMILES: Oc1ccc(CCN2CCC(Nc3nc4ccccc4n3Cc3ccc(F)cc3)CC2)cc1 [Desmethyl-astemizole]
- spectrum intensity of the extracted mass range (compound in SEC spin column filtrate) [1]: 12076364
- spectrum intensity of the extracted mass range (compound in SEC spin column filtrate) [2]: 10091649
- spectrum intensity of the extracted mass range (compound in SEC spin column filtrate) (compound 1 μM, protein 47.5 μM): 10876345
- spectrum intensity of the extracted mass range (compound in SEC spin column filtrate) [3]: 6489161
- spectrum intensity of the extracted mass range (compound in SEC spin column filtrate) [4]: 12628724
- spectrum intensity of the extracted mass range (compound in SEC spin column filtrate) [5]: 26276867
- spectrum intensity of the extracted mass range (compound in SEC spin column filtrate) [6]: 85510154
- spectrum intensity of the extracted mass range (compound in SEC spin column filtrate) [7]: 141884756
- spectrum intensity of the extracted mass range (compound in SEC spin column filtrate) [8]: 225675004
- spectrum intensity of the extracted mass range (compound in SEC spin column filtrate) [9]: 135192715
- spectrum intensity of the extracted mass range (compound in SEC spin column filtrate) [10]: 339921213
- spectrum intensity of the extracted mass range (compound in SEC spin column filtrate) [11]: 728918987

SMILES: COC(=O)Nc1nc2ccc(S(=O)(=O)c3ccccc3)cc2[nH]1 [Fenbendazole Sulfone]
- spectrum intensity of the extracted mass range (compound in SEC spin column filtrate) [1]: 4524987
- spectrum intensity of the extracted mass range (compound in SEC spin column filtrate) [2]: 2681468
- spectrum intensity of the extracted mass range (compound in SEC spin column filtrate) (compound 1 μM, protein 47.5 μM): 2967134
- spectrum intensity of the extracted mass range (compound in SEC spin column filtrate) [3]: 9471873
- spectrum intensity of the extracted mass range (compound in SEC spin column filtrate) [4]: 13569838
- spectrum intensity of the extracted mass range (compound in SEC spin column filtrate) [5]: 12568548
- spectrum intensity of the extracted mass range (compound in SEC spin column filtrate) [6]: 4055561
- spectrum intensity of the extracted mass range (compound in SEC spin column filtrate) [7]: 63176239
- spectrum intensity of the extracted mass range (compound in SEC spin column filtrate) [8]: 88590858
- spectrum intensity of the extracted mass range (compound in SEC spin column filtrate) [9]: 5180253
- spectrum intensity of the extracted mass range (compound in SEC spin column filtrate) [10]: 165761033
- spectrum intensity of the extracted mass range (compound in SEC spin column filtrate) [11]: 286102392

SMILES: OCCOCCN1CCN(C(c2ccccc2)c2ccc(Cl)cc2)CC1 (stereo not shown) [Hydroxyzine]
- spectrum intensity of the extracted mass range (compound in SEC spin column filtrate) [1]: 112855827
- spectrum intensity of the extracted mass range (compound in SEC spin column filtrate) [2]: 126033923
- spectrum intensity of the extracted mass range (compound in SEC spin column filtrate) (compound 1 μM, protein 47.5 μM): 89527484
- spectrum intensity of the extracted mass range (compound in SEC spin column filtrate) [3]: 134387910
- spectrum intensity of the extracted mass range (compound in SEC spin column filtrate) [4]: 108540593
- spectrum intensity of the extracted mass range (compound in SEC spin column filtrate) [5]: 115214088
- spectrum intensity of the extracted mass range (compound in SEC spin column filtrate) [6]: 300477422
- spectrum intensity of the extracted mass range (compound in SEC spin column filtrate) [7]: 567712336
- spectrum intensity of the extracted mass range (compound in SEC spin column filtrate) [8]: 554713461
- spectrum intensity of the extracted mass range (compound in SEC spin column filtrate) [9]: 922692583
- spectrum intensity of the extracted mass range (compound in SEC spin column filtrate) [10]: 919366054
- spectrum intensity of the extracted mass range (compound in SEC spin column filtrate) [11]: 1073610880
